In patent US20030162661A1, “2,4-Diamino-1,3,5-triazines, their preparation, and their use as herbicides and plant growth regulators” (priority 1998, published 2003):

Legend:
[1] = system: harmful plants such as Stellaria media, Lolium multiflorum, Amaranthus retroflexus, Sinapis alba, Avena sativa and Setaria viridis; test: Pre-emergence effect on weeds (greenhouse pot test, visual scoring); assay type: in vivo; conditions: applied pre-emergence at an application rate of 1 kg or less of active substance per hectare; scored visually after 3 to 4 weeks vs untreated controls;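 note: scored as plant damage or reduced emergence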
From the text: 1 Pre-emergence Effect on Weeds
Seeds or rhizome pieces of monocotyledonous and dicotyledonous weeds plants are placed in sandy loam soil in plastic pots and covered with soil. The compounds according to the invention which are formulated in the form of wettable powders or emulsion concentrates are then applied to the surface of the soil cover in the form of an aqueous suspension or emulsion at an application rate of 600 to 800 l of water/ha (converted), in various dosages.

[2] = system: harmful plants such as Sinapis alba, Echinochloa crus- galli, Lolium multiflorum, Stellaria media, Cyperus iria, Amaranthus retroflexus, Setaria viridis and …; test: Post-emergence effect on weeds (greenhouse pot test, visual scoring); assay type: in vivo; conditions: applied post-emergence (three-leaf stage) at an application rate of 1 kg and less of active substance per hectare; scored visually after about 3 to 4 weeks vs untreated controls
Experimental: 2. Post-emergence Effect on Weeds
Seeds or rhizome pieces of monocotyledonous and dicotyledonous weeds are placed in sandy loam soil in plastic pots, covered with soil and grown in the greenhouse under good growth conditions. Three weeks after sowing, the test plants are treated in the three-leaf stage. The compounds according to the invention which are formulated as wettable powders or as emulsion concentrates are sprayed in various dosages on the green parts of the plants at an application rate of 600 to 800 l of water/ha (converted). After the test plants have remained in the greenhouse for about 3 to 4 weeks under ideal growth conditions, the effect of the preparations is scored visually by comparison with untreated controls. The agents according to the invention also have a good herbicidal post-emergence action against a broad range of economically important grass weeds and dicotyledonous weeds.

Row | SMILES | herbicidal action against harmful plants, pre-emergence [1] | herbicidal action against harmful plants, post-emergence [2]
1 | CC(C)c1nc(N)nc(NC(CCCc2cccc(F)c2)C2CC2)n1 (stereo not drawn) [Example 22-25] | very good herbicidal action | very good herbicidal action
2 | Cc1ccccc1CCC(Nc1nc(N)nc(C(C)(C)F)n1)C1CCC1 (stereo not drawn) [Example 4-25] | very good herbicidal action | very good herbicidal action
3 | CC(C)c1nc(N)nc(NC(CCc2cccc(Cl)c2)C2CCC2)n1 (stereo not drawn) [Example 4-10] | very good herbicidal action | very good herbicidal action
4 | Cc1nc(N)nc(NC(CCc2ccccc2)C2CCC2)n1 (stereo not drawn) [Example 4-3] | very good herbicidal action | very good herbicidal action
5 | CC(C)(F)c1nc(N)nc(NC(CCCc2ccccc2)C2CCC2)n1 (stereo not drawn) [Example 28-10] | very good herbicidal action | very good herbicidal action
6 | CC(C)(F)c1nc(N)nc(NC(CCCc2cccc(F)c2)C2CC2)n1 (stereo not drawn) [Example 22-24] | very good herbicidal action | very good herbicidal action
7 | CC(F)c1nc(N)nc(NC(CCCc2ccccc2)C2CC2)n1 (stereo not drawn) [Example 22-3] | very good herbicidal action | very good herbicidal action
8 | CC(C)Cc1nc(N)nc(NC(CCc2ccccc2)C2CC2)n1 (stereo not drawn) [Example 9-1] | very good herbicidal action | very good herbicidal action
9 | CC(C)c1nc(N)nc(NC(CCc2ccccc2)c2ccoc2)n1 (stereo not drawn) [Example 18-2] | very good herbicidal action | very good herbicidal action
10 | COc1cccc(CCC(CC2CC2)Nc2nc(N)nc(C(C)(C)F)n2)c1 (stereo not drawn) [Example 32-12] | very good herbicidal action | very good herbicidal action
11 | CC(C)Cc1nc(N)nc(NC(CCCc2ccccc2)C2CCC2)n1 (stereo not drawn) [Example 28-5] | very good herbicidal action | very good herbicidal action
12 | CC(C)(F)c1nc(N)nc(NC(CCCc2ccccc2)C2CC2)n1 (stereo not drawn) [Example 22-12, 2-Amino-4-(1-fluoro-1-methylethyl)-6-(1-phenyl-4-cyclopropyl-4-butylamino)-1,3,5-triazine] | very good herbicidal action | very good herbicidal action
13 | CC(C)c1nc(N)nc(NC(CCc2cccc(Cl)c2)CC2CC2)n1 (stereo not drawn) [Example 32-5] | very good herbicidal action | very good herbicidal action
14 | Cc1cc(C)cc(CCC(Nc2nc(N)nc(C(C)C)n2)C2CC2)c1 (stereo not drawn) [Example 9-18] | very good herbicidal action | very good herbicidal action
15 | CC(C)c1nc(N)nc(NC(CCc2cccc(C(F)(F)F)c2)C2CC2)n1 (stereo not drawn) [Example 9-11] | very good herbicidal action | very good herbicidal action
16 | Nc1nc(NC(CCc2ccccc2)C2CC2)nc(-c2ccccc2)n1 (stereo not drawn) [Example 9-19] | very good herbicidal action | very good herbicidal action
17 | COc1cccc(CCC(Nc2nc(N)nc(C(C)(C)F)n2)C2CC2)c1 (stereo not drawn) [Example 9-14] | very good herbicidal action | very good herbicidal action
18 | CCc1nc(N)nc(NC(CCc2ccccc2)C2CC2)n1 (stereo not drawn) [Example 9-2] | very good herbicidal action | very good herbicidal action
19 | CC(C)c1nc(N)nc(NC(CCCc2ccccc2)C2CC2)n1 (stereo not drawn) [Example 22-11] | very good herbicidal action | very good herbicidal action
20 | Cc1cc(C)cc(CCC(Nc2nc(N)nc(C(C)(C)F)n2)C2CC2)c1 (stereo not drawn) [Example 9-17, 2-Amino-4-(1-fluoro-1-methylethyl)-6-[3-(3,5-dimethylphenyl)-1-cyclopropyl-1-propylamino]-1,3,5-triazine] | very good herbicidal action | very good herbicidal action

Row | SMILES | herbicidal action against harmful plants, pre-emergence [1] | herbicidal action against harmful plants, post-emergence [2]
21 | Cc1nc(N)nc(NC(CCc2ccccc2)C2CC2)n1 (stereo not drawn) [Example 9-3] | very good herbicidal action | very good herbicidal action
22 | CC(C)c1nc(N)nc(NC(C=Cc2ccccc2)C2CC2)n1 (stereo not drawn) [Example 44-2] | very good herbicidal action | very good herbicidal action
23 | Cc1cccc(CCCC(Nc2nc(N)nc(C(C)C)n2)C2CCC2)c1 (stereo not drawn) [Example 28-17] | very good herbicidal action | very good herbicidal action
24 | CC(C)(F)c1nc(N)nc(NC(CCc2cccc(F)c2)C2CCC2)n1 (stereo not drawn) [Example 4-28] | very good herbicidal action | very good herbicidal action
25 | CC(C)c1nc(N)nc(NC(CCCCc2ccccc2)C2CCC2)n1 (stereo not drawn) [Example 31-3] | very good herbicidal action | very good herbicidal action
26 | COc1cccc(CCCC(Nc2nc(N)nc(C(C)C)n2)C2CC2)c1 (stereo not drawn) [Example 22-29] | very good herbicidal action | very good herbicidal action
27 | Cc1cc(C)cc(CCCC(Nc2nc(N)nc(C(C)(C)F)n2)C2CC2)c1 (stereo not drawn) [Example 22-28, 2-Amino-4-(1-fluoro-1-methylethyl)-6-[4-(3,5-dimethylphenyl)-1-cyclopropyl-1-butylamino]-1,3,5-triazine] | very good herbicidal action | very good herbicidal action
28 | CC(C)(F)c1nc(N)nc(NC(CCCCc2ccccc2)C2CC2)n1 (stereo not drawn) [Example 30-2] | very good herbicidal action | very good herbicidal action
29 | Cc1nc(N)nc(NC(CCCc2ccccc2)C2CC2)n1 (stereo not drawn) [Example 22-8] | very good herbicidal action | very good herbicidal action
30 | COc1cccc(CCCC(Nc2nc(N)nc(C(C)(C)F)n2)C2CC2)c1 (stereo not drawn) [Example 22-30] | very good herbicidal action | very good herbicidal action
31 | CC(C)(F)c1nc(N)nc(NC(CCc2ccccc2)C2CCCC2)n1 (stereo not drawn) [Example 8-2] | very good herbicidal action | very good herbicidal action
32 | CC(C)(F)c1nc(N)nc(NC(C=Cc2ccccc2)C2CC2)n1 (stereo not drawn) [Example 44-1] | very good herbicidal action | very good herbicidal action
33 | CC(C)c1nc(N)nc(NC(CCc2ccccc2)C2CCCO2)n1 (stereo not drawn) [Example 19-6] | very good herbicidal action | very good herbicidal action
34 | COc1cccc(CCC(Nc2nc(N)nc(C(C)C)n2)C2CC2)c1 (stereo not drawn) [Example 9-13] | very good herbicidal action | very good herbicidal action
35 | CC(C)(F)c1nc(N)nc(NC(CCCCc2ccccc2)C2CCC2)n1 (stereo not drawn) [Example 31-1] | very good herbicidal action | very good herbicidal action
36 | Cc1cccc(CCC(Nc2nc(N)nc(C(C)C)n2)C2CC2)c1 (stereo not drawn) [Example 9-12] | very good herbicidal action | very good herbicidal action
37 | COc1cccc(CCCC(Nc2nc(N)nc(C(C)C)n2)C2CCC2)c1 (stereo not drawn) [Example 28-20] | very good herbicidal action | very good herbicidal action
38 | CC(C)c1nc(N)nc(NC(CCc2ccccc2)CC2CC2)n1 (stereo not drawn) [Example 32-1] | very good herbicidal action | very good herbicidal action
39 | Cc1ccccc1CCC(Nc1nc(N)nc(C(C)C)n1)C1CCC1 (stereo not drawn) [Example 4-26] | very good herbicidal action | very good herbicidal action
